Reference: US7217827B2, “Halogen-containing aromatic compound” (Nippon Shokubai Co., Ltd., priority 2001, dated 2007)

Test: Solubility to dimethylacetoamide at 25° C., solution then left standing for a night
Conditions: for solubility to dimethylacetoamide: at 25° C.; for precipitation from the dimethylacetoamide solution on standing: solution left standing for a night

Row | SMILES | solubility to dimethylacetoamide [wt. %] | precipitation from the dimethylacetoamide solution on standing
1 | O=C1OC(=O)c2c(F)c(Oc3c(Cl)c(Cl)c(Oc4c(F)c(F)c5c(c4F)C(=O)OC5=O)c(Cl)c3Cl)c(F)c(F)c21 [Example 1, 1,4-bis(3,4-dicarboxytrifluorophenoxy)tetrachlorobenzene dianhydride] | 22 | precipitations were not found
2 | Nc1c(F)c(N)c(F)c(Cl)c1F [Example III-1, 5-chloro-2,4,6-trifluoro-m-phenylenediamine] | 68 | precipitations were not found
